Test results as given in US9096524B2, “Anthelmintic agents and their use” (Intervet International B.V., priority 2009, dated 2015).

tested on: A. galli (intestinal roundworm of chicken) larval stage 3; O. dentatum (nodular worm of swine) larval stages 3 and 4; assay: Activity against Ascaridia galli and Oesophagostomum dentatum larvae in vitro (minimum effective concentration); assay type: cell-based; conditions: in vitro; one or more of A. galli L3, O. dentatum L3, L4; threshold 1 μM; read-out: MEC (minimum effective concentration) against one or more of the tested nematodes

Structure (SMILES) | minimal effective concentration
O=C(CCN1CCN(c2ccc(C(F)(F)F)cc2)CC1)N1CCCN(c2ccc(SC(F)(F)F)cc2)CC1 [Example 1017] | < 1 µM
COc1ccc(N2CCN(CCC(=O)N3CCCN(c4ccc(SC(F)(F)F)cc4)CC3)CC2)cc1 [Example 1020] | < 1 µM
O=C(CCCN1CCN(c2nnc(C(F)(F)F)s2)CC1)N1CC[C@H](Nc2ccc([N+](=O)[O-])c(C(F)(F)F)c2)C1 [Example 749] | < 1 µM
COc1ccc(N2CCN(CCCC(=O)N3CC[C@H](Nc4ccc([N+](=O)[O-])c(C(F)(F)F)c4)C3)CC2)cn1 [Example 746] | < 1 µM
CC(CN1CCN(c2ccc(C(C)(C)C)cc2)CC1)C(=O)N1CC[C@@H](Nc2ccc([N+](=O)[O-])c(C(F)(F)F)c2)C1 (some centres unmarked) [Example 787] | < 1 µM
O=C(CCN1CCCN(c2ccc(Cl)cc2)CC1)N1CC[C@@H](Nc2ccc([N+](=O)[O-])c(C(F)(F)F)c2)C1 [Example 799] | < 1 µM
CC(C)(C)c1ccc(N2CCN(CCC(=O)N3CCC(Nc4ccc(C(F)(F)F)cn4)CC3)CC2)cc1 [Example 329] | < 1 µM
CC(C)(C)c1ccc(N2CCN(CCC(=O)N3CCC(Nc4ccc(S(C)(=O)=O)c(C(F)(F)F)c4)CC3)CC2)cc1 [Example 340] | < 1 µM
CC(C)(C)c1ccc(N2CCN(CCCC(=O)N3CCCN(c4ccc(C#N)c(C(F)(F)F)c4)CC3)CC2)cc1 [Example 1010] | < 1 µM
CC(C)COc1cc(NC2CCN(C(=O)CCN3CCN(c4ccc(C(F)(F)F)cc4)CC3)CC2)ccc1[N+](=O)[O-] [Example 459] | < 1 µM
O=C(CCCN1CCN(c2ccc(Cl)cc2)CC1)N1CCCN(c2ccc(SC(F)(F)F)cc2)CC1 [Example 1028] | < 1 µM
O=C(CC(=O)N1CCN(c2cccc(OC(F)(F)F)c2)CC1)N1CCC(Nc2ccc([N+](=O)[O-])c(C(F)(F)F)c2)CC1 [Example 210] | < 1 µM
CC(C)(C)c1ccc(N2CCN(CCCC(=O)N3CCC(Oc4ccc([N+](=O)[O-])c(C(F)(F)F)c4)CC3)CC2)cc1 [Example 258] | < 1 µM
O=C(CCN1CCC(Nc2ccc([N+](=O)[O-])c(C(F)(F)F)c2)CC1)N1CCN(c2ccc(Cl)cc2)CC1 [Example 199] | < 1 µM
O=C(CCCN1CCN(c2ccc(C(F)(F)F)cc2)CC1)N1CCCN(c2ccc(SC(F)(F)F)cc2)CC1 [Example 1027] | < 1 µM
O=[N+]([O-])c1ccc(OC2CCN(C(=S)CCN3CCC(OCc4ccc(C(F)(F)F)cc4)CC3)CC2)cc1C(F)(F)F [Example 695] | < 1 µM
O=C(CCC1CCN(c2ccc(C(F)(F)F)cc2)CC1)N1CC[C@@H](Nc2ccc([N+](=O)[O-])c(C(F)(F)F)c2)C1 [Example 775] | < 1 µM
O=C(CCCN1CCN(c2ccc(Cl)cc2)CC1)N1CCC(Nc2ccc(Cl)c(SC(F)(F)F)c2)CC1 [Example 359] | < 1 µM
COc1ccc(N2CCN(CCC(=O)N3CCC(Oc4ccc([N+](=O)[O-])c(OCC(C)C)c4)CC3)CC2)cc1 [Example 516] | < 1 µM
O=C(CCC1CCN(c2ccccc2)CC1)N1CCC(Nc2ccc([N+](=O)[O-])c(C(F)(F)F)c2)CC1 [Example 216] | < 1 µM
CCOC(=O)c1ccc(NC2CCN(C(=O)CCCN3CCN(c4ccc(Cl)cc4)CC3)CC2)cc1 [Example 338] | < 1 µM
O=C(CCCN1CCN(c2cccc(Cl)c2)CC1)NC1CCN(c2ccc(C(F)(F)F)cn2)CC1 [Example 648] | < 1 µM
N#Cc1ccc(N2CCC(NC(=O)CCN3CCN(c4cccc(Cl)c4)CC3)CC2)cc1C(F)(F)F [Example 609] | < 1 µM

same assay, conditions: in vitro; one or more of A. galli L3, O. dentatum L3, L4; threshold 7 μM; read-out: MEC (minimum effective concentration) against one or more of the tested nematodes

Structure (SMILES) | minimal effective concentration
COc1cc(NC2CCN(C(=O)CCN3CCN(c4ccc(Cl)c(C(F)(F)F)c4)CC3)CC2)ccc1[N+](=O)[O-] [Example 384] | < 7 µM
O=C(CCN1CCN(c2ccccc2)CC1)N1CCC(Nc2ccc([N+](=O)[O-])c(C(F)(F)F)c2)CC1 [Example 169] | < 7 µM
O=C(CCCN1CCN(c2ccc(C(F)(F)F)cc2)CC1)N1CCCN(c2ccc([N+](=O)[O-])c(C(F)(F)F)c2)CC1 [Example 1001] | < 7 µM
CC(C)COc1cc(NC2CCN(C(=O)CCN3CCN(c4ccc(C(F)(F)F)cc4)CC3)CC2)ccc1[N+](=O)[O-] [Example 459] | < 7 µM
CC(C)COc1cc(OC2CCN(C(=O)CCN3CCN(c4ccc(F)cc4F)CC3)CC2)ccc1[N+](=O)[O-] [Example 520] | < 7 µM
COc1ccc(N2CCN(CCC(=O)N3CCC(Oc4ccc([N+](=O)[O-])c(OCC(C)C)c4)CC3)CC2)cc1 [Example 516] | < 7 µM

same assay, conditions: in vitro; two or more of A. galli L3, O. dentatum L3, L4; threshold 1 μM; read-out: MEC (minimum effective concentration) against two or more of the tested nematodes

Structure (SMILES) | minimal effective concentration
CC(CN1CCN(c2ccc(Cl)cc2)CC1)C(=S)N1CCC(Nc2ccc(C#N)c(C(F)(F)F)c2)CC1 (centres unmarked) [Example 668] | < 1 µM
O=C(CCN1CCC(c2ccc(F)c(F)c2)CC1)N1CCC(Oc2ccc([N+](=O)[O-])c(C(F)(F)F)c2)CC1 [Example 436] | < 1 µM
O=C(C1CCC[C@H](C(=O)N2CCN(c3ccccc3)CC2)C1)N1CCC(Oc2ccc([N+](=O)[O-])c(C(F)(F)F)c2)CC1 (some centres unmarked) [Example 228] | < 1 µM
O=C(CCN1CCC(c2ccc(C(F)(F)F)cc2)CC1)N1CCC(Oc2ccc([N+](=O)[O-])c(C(F)(F)F)c2)CC1 [Example 438] | < 1 µM
COc1cc(NC2CCN(C(=S)CCN3CCN(c4ccc(OCc5ccccc5)cc4)CC3)CC2)ccc1[N+](=O)[O-] [Example 675] | < 1 µM
O=C(CCCN1CCN(c2ccc(Cl)cc2)CC1)N1CCC(Nc2ccc([N+](=O)[O-])cn2)CC1 [Example 559] | < 1 µM
COc1ccc(C2CCN(CCC(=O)N3CCC(Oc4ccc([N+](=O)[O-])c(C(F)(F)F)c4)CC3)CC2)cc1 [Example 435] | < 1 µM
O=C(CCCN1CCN(c2ccc(C(F)(F)F)cc2)CC1)N1CCN(c2ccc(SC(F)(F)F)cc2)CC1 [Example 1033] | < 1 µM
O=C(CCN1CCCN(c2ccc(C(F)(F)F)cc2)CC1)N1CC[C@H](Nc2ccc([N+](=O)[O-])c(C(F)(F)F)c2)C1 [Example 725] | < 1 µM
COc1ccc(N2CCN(CCC(=O)N3CCC(Nc4ccc([N+](=O)[O-])c(C(F)(F)F)c4)CC3)CC2)cc1 [Example 254] | < 1 µM
O=C(CCN1CCN(C2CCCCC2)CC1)N1CCC(Nc2ccc([N+](=O)[O-])c(C(F)(F)F)c2)CC1 [Example 241] | < 1 µM
O=C(CCN1CCN(c2cccc(OC(F)(F)F)c2)CC1)N1CCC(Oc2ccc([N+](=O)[O-])c(C(F)(F)F)c2)CC1 [Example 225] | < 1 µM
O=[N+]([O-])c1ccc(OC2CCN(C(=S)CCN3CCC(OCc4ccc(C(F)(F)F)cc4)CC3)CC2)cc1C(F)(F)F [Example 695] | < 1 µM
O=C(CCN1CCN(c2cccc(C(F)(F)F)c2)CC1)N1CCC(Nc2ccc([N+](=O)[O-])c(C(F)(F)F)c2)CC1 [Example 183] | < 1 µM
CC(C)(CN1CCN(c2ccc(C(F)(F)F)cc2)CC1)C(=O)N1CCC(Nc2ccc([N+](=O)[O-])c(C(F)(F)F)c2)CC1 [Example 585] | < 1 µM
O=C(CCC1CCN(c2ccccc2)CC1)N1CCC(Nc2ccc([N+](=O)[O-])c(C(F)(F)F)c2)CC1 [Example 216] | < 1 µM
N#Cc1ccc(NC2CCN(C(=O)CCCN3CCC(Nc4ccc(Cl)cc4)CC3)CC2)cc1C(F)(F)F [Example 759] | < 1 µM
O=C(CCN1CCN(c2ccc(Cl)cc2)CC1)N1CCC(Oc2ccc([N+](=O)[O-])c(C(F)(F)F)c2)CC1 [Example 421] | < 1 µM

same assay, conditions: read-out: MEC (minimum effective concentration) against one or more of the tested nematodes, in vitro; one or more of A. galli L3, O. dentatum L3, L4; threshold 1 μM

Structure (SMILES) | minimal effective concentration
N#Cc1ccc(N2CCC(NC(=O)CCN3CCN(c4ccc(C(F)(F)F)cc4)CC3)CC2)cc1C(F)(F)F [Example 611] | < 1 µM
N#Cc1ccc(NC2CCN(C(=O)CCCN3CCN(c4ccc(C(F)(F)F)cc4)CC3)CC2)cc1Cl [Example 105, 2-chloro-4-(1-{4-[4-(4-trifluoromethyl-phenyl)-piperazin-1-yl]-butyryl}-piperidin-4-ylamino)-benzonitrile] | < 1 µM
O=C(CCC1CCN(c2ccc(Cl)cc2)CC1)N1CCC(Nc2ccc([N+](=O)[O-])c(C(F)(F)F)c2)CC1 [Example 144, 3-[1-(4-chloro-phenyl)-piperidin-4-yl]-1-[4-(4-nitro-3-trifluoromethyl-phenylamino)-piperidin-1-yl]-propan-1-one] | < 1 µM
CC(C)(C)c1ccc(N2CCC(CCC(=O)N3CCC(Nc4ccc([N+](=O)[O-])c(C(F)(F)F)c4)CC3)CC2)cc1 [Example 147, 3-[1-(4-tert-butyl-phenyl)-piperidin-4-yl]-1-[4-(4-nitro-3-trifluoromethyl-phenylamino)-piperidin-1-yl]-propan-1-one] | < 1 µM

same assay, conditions: read-out: MEC (minimum effective concentration) against one or more of the tested nematodes, in vitro; one or more of A. galli L3, O. dentatum L3, L4; threshold 7 μM

Structure (SMILES) | minimal effective concentration
N#Cc1ccc(NC2CCN(C(=O)CCCN3CCN(c4ccc(C(F)(F)F)cc4)CC3)CC2)cc1Cl [Example 105, 2-chloro-4-(1-{4-[4-(4-trifluoromethyl-phenyl)-piperazin-1-yl]-butyryl}-piperidin-4-ylamino)-benzonitrile] | < 7 µM
O=C(CCC1CCN(c2ccc(Cl)cc2)CC1)N1CCC(Nc2ccc([N+](=O)[O-])c(C(F)(F)F)c2)CC1 [Example 144, 3-[1-(4-chloro-phenyl)-piperidin-4-yl]-1-[4-(4-nitro-3-trifluoromethyl-phenylamino)-piperidin-1-yl]-propan-1-one] | < 7 µM
CC(C)(C)c1ccc(N2CCC(CCC(=O)N3CCC(Nc4ccc([N+](=O)[O-])c(C(F)(F)F)c4)CC3)CC2)cc1 [Example 147, 3-[1-(4-tert-butyl-phenyl)-piperidin-4-yl]-1-[4-(4-nitro-3-trifluoromethyl-phenylamino)-piperidin-1-yl]-propan-1-one] | < 7 µM

same assay, conditions: read-out: MEC (minimum effective concentration) against two or more of the tested nematodes, in vitro; two or more of A. galli L3, O. dentatum L3, L4; threshold 1 μM

Structure (SMILES) | minimal effective concentration
N#Cc1ccc(NC2CCN(C(=O)CCCN3CCCN(c4ccc(Cl)cc4)CC3)CC2)cc1C(F)(F)F [Example 757] | < 1 µM
N#Cc1ccc(NC2CCN(C(=O)CCCN3CCN(c4ccc(C(F)(F)F)cc4)CC3)CC2)cc1Cl [Example 105, 2-chloro-4-(1-{4-[4-(4-trifluoromethyl-phenyl)-piperazin-1-yl]-butyryl}-piperidin-4-ylamino)-benzonitrile] | < 1 µM
O=C(CCC1CCN(c2ccc(Cl)cc2)CC1)N1CCC(Nc2ccc([N+](=O)[O-])c(C(F)(F)F)c2)CC1 [Example 144, 3-[1-(4-chloro-phenyl)-piperidin-4-yl]-1-[4-(4-nitro-3-trifluoromethyl-phenylamino)-piperidin-1-yl]-propan-1-one] | < 1 µM
N#Cc1ccc(N2CCC(NC(=O)CCCN3CCN(c4ccc(C(F)(F)F)cc4)CC3)CC2)cc1C(F)(F)F [Example 619] | < 1 µM
COc1ccc(N2CCN(CCCC(=O)N3CCC(Nc4ccc(C#N)c(C(F)(F)F)c4)CC3)CC2)cn1 [Example 760] | < 1 µM
N#Cc1ccc(NC2CCN(C(=O)CCCC3CCN(c4ccc(Cl)cc4)CC3)CC2)cc1C(F)(F)F [Example 754] | < 1 µM
N#Cc1ccc(NC2CCN(C(=O)CCN3CCN(c4ccc(Cl)cn4)CC3)CC2)cc1C(F)(F)F [Example 764] | < 1 µM
CC(C)(C)c1ccc(N2CCC(CCC(=O)N3CCC(Nc4ccc([N+](=O)[O-])c(C(F)(F)F)c4)CC3)CC2)cc1 [Example 147, 3-[1-(4-tert-butyl-phenyl)-piperidin-4-yl]-1-[4-(4-nitro-3-trifluoromethyl-phenylamino)-piperidin-1-yl]-propan-1-one] | < 1 µM
